The experiment is described as follows: Antiinflammatory activity in human PMN assessed as inhibition of Phorbol-12-myristate-13-acetate-induced ROS production. Type of experiment: functional.
Broadly, the IC50 is the concentration needed to halve the response being measured. Turning to `C=CCC1=CC(OC)(/C(C)=C/c2ccc3c(c2)OCO3)C(OC)=CC1=O` (stereo not given) [FUTOQUINOL], the IC50 came out at 13.1 µM.

Take `O=C(/C=C/c1ccc(O)cc1)NCCc1ccc(O)cc1` [N-P-COUMAROYL TYRAMINE]: the IC50 was 8.4 µM.

`C=CCC1=C[C@@](OC)(/C(C)=C/c2ccc(O)c(OC)c2)C(OC)=CC1=O` [PIPERKADSIN A]: the IC50 was determined as 4.3 µM.

Regarding `C=CCC1([C@H](C)[C@@H](OC(C)=O)c2ccc(OC)c(OC)c2)C=C(OC)C(OC)=CC1=O` (stereo not given in full) [PIPERKADSIN B], the concentration for half-maximal inhibition (IC50) is 12.2 µM.

For `COc1c(O)cc2c3c(cc4ccccc4c13)N(OC)C2=O` [PIPERLACTAM S], the IC50 came out at 7 µM.

Values taken from ChEMBL document CHEMBL1157955, “Anti-inflammatory neolignans from Piper kadsura” (J Nat Prod, 2006).
